Measurements from patent publication US20220185818A1, “PYRROLOHETEROCYCLIC DERIVATIVE, PREPARATION METHOD THEREFOR, AND APPLICATION THEREOF IN MEDICINE” (Jiangsu Hengrui Medicine Co., Ltd., priority 2019, published 2022).

Experiments:
[1] = target: T1, ERK2 (Homo sapiens, UniProt P28482); assay: ERK2 enzyme activity test (ADP-Glo Kinase Assay); type: biochemical; settings: read-out: IC50 value of the inhibition on ERK2 enzyme activity
T1 construct: purchased R&D 1879-KS-010
Protocol: (§1) The purpose of this experiment is to detect the inhibitory ability of the compounds on the ERK2 enzyme activity, and evaluate the in vitro activity of the compounds based on the IC50. The ADP-Glo™ Kinase Assay Kit is used in this experiment. Under the action of the enzyme, the substrate is phosphorylated and ADP is produced at the same time. The ADP-Glo reagent is added to remove the unreacted ATP in the reaction system, and the ADP produced by the reaction is detected by the kinase detection reagent. In the presence of the compound, the inhibition rate of the compound is calculated by measuring the signal value.
(§2) ATP was diluted to 500 μM with the buffer. The compound was dissolved in DMSO to prepare a stock solution with an initial concentration of 20 mM, and then Bravo (SGC120TH34702, Agilent Technologies) was used to dilute the stock solution to desired concentrations. Finally, a 3 μL of a mixed solution of enzyme and substrate, and 1 μL of different concentrations of the compound (the initial concentration is 50 μM, 4-fold dilution) were added to each well of the 384-well plate, and the plate was incubated at 30° C. for 10 minutes, and finally 1 μL of 500 μM ATP solution was added to each well, and the plate was incubated at 30° C. for 2 hours. Then 5 μL of ADP-Glo was added, and the plate was incubated at 30° C. for 40 minutes. Then 10 μL of kinase detection buffer was added, and the plate was incubated at 30° C. for 40 minutes. The 384-well plate was taken out and placed in a microplate reader (BMG labtech, PHERAstar FS), and the chemiluminescence was measured by the microplate reader.
(§3) Microsoft Excel, Graphpad Prism 5 was used to process and analyze the data.

[2] = tested on: Colo205 cells; assay: In vitro proliferation inhibition test on Colo205 tumor cells (CellTiter-Glo); type: cell-based; settings: Homo sapiens, COLO 205, 72 h; 3 days of culture, CTG; read-out: IC50 value of the inhibition on in vitro Colo205 tumor cell proliferation
Protocol: The purpose of this experiment is to test the inhibitory activity of the compounds on the proliferation of Colo205 cells (CCL-222, ATCC) in vitro. The cells were treated in vitro with different concentrations of the compounds. After 3 days of culture, the cell proliferation was tested with CTG (CellTiter-Glo® Luminescent Cell Viability Assay, Promega, Catalog No. G7573) reagent, and the in vitro activity of the compounds was evaluated according to the IC50 value.
In the following, taking the in vitro proliferation inhibition test method of Colo205 cells as an example, the method in the present disclosure for testing the in vitro proliferation inhibitory activity of the compounds of the present disclosure is described. This method is also applicable to, but not limited to, the in vitro proliferation inhibitory activity test on other tumor cells.
Colo205 cells were digested, centrifuged and then resuspended. The single cell suspension was mixed well, and the density of viable cells was adjusted to 5.0×10^4 cells/ml with cell culture medium (RPMI1640+2% FBS), and 95 μl/well was added to a 96-well cell culture plate. Only 100 μl medium was added to the peripheral wells of the 96-well plate. The culture plate was incubated in an incubator for 24 hours (37° C., 5% CO2).
The compound was dissolved in DMSO and prepared into a stock solution with an initial concentration of 20 mM. The initial concentration of the small molecule compound was 2 mM, and then 4-fold diluted into 9 points, and the 10th point is DMSO. Another 96-well plate was taken and 90 μl of cell culture medium (RPMI1640+2% FBS) was added to each well, then 10 μl of different concentrations of the test sample was added to each well. The mixture was mixed well, and then 5 μL of different concentrations of the test sample was added to the cell culture plate with duplicate well for each sample. The culture plate was incubated in an incubator for 3 days (37° C., 5% CO2). The 96-well cell culture plate was taken out, 50 μL CTG solution was added to each well, and the plate was incubated for 10 minutes at room temperature. In a microplate reader (BMG labtech, PHERAstar FS), chemiluminescence was measured with the microplate reader.
as §3

[3] = target: T2, ERK1 (Homo sapiens, UniProt P27361); assay: ERK1 enzyme activity test (ADP-Glo Kinase Assay); type: biochemical; settings: read-out: IC50 value of the inhibition on ERK1 enzyme activity
T2 construct: purchased R&D 1879-KS-010
Protocol: as §1, with “the ERK1” for “the ERK2”, “detected with” for “detected by”
as §2, with “diluted to 300 μM with” for “diluted to 500 μM with”, “Finally, a […] of” for “Finally, a 3 μL of”, “and 1 μL, of different” for “and 1 μL of different”, “μL of 300 μM ATP” for “μL of 500 μM ATP”, “μL of Kinase detection buffer” for “μL of kinase detection buffer”
as §3

T1 sequence (P28482 2-360 limits assumed): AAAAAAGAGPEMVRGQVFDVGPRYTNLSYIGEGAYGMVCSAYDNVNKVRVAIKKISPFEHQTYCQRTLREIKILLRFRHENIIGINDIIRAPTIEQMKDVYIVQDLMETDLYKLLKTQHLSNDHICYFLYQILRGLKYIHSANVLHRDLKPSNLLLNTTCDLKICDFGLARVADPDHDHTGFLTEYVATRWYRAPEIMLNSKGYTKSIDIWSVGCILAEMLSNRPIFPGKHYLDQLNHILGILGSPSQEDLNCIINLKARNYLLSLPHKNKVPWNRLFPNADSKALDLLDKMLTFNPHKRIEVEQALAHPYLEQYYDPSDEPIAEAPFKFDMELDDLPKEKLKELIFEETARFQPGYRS
T2 sequence (P27361 whole entry): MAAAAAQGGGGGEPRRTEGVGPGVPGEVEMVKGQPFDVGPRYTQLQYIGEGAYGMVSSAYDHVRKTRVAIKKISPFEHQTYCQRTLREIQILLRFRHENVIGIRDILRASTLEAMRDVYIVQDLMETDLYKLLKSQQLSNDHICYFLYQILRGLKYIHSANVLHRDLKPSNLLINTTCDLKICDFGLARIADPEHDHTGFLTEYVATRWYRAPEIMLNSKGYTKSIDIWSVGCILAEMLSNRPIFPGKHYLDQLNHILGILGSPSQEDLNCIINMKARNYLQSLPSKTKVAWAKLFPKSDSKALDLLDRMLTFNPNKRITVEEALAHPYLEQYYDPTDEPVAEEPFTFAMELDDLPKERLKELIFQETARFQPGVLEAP

| SMILES | IC50 [1] | IC50 [2] | IC50 [3] |
| --- | --- | --- | --- |
| COc1cc(F)cc([C@@H](CO)N2Cc3cc(-c4nc(Nc5ccnn5C)ncc4C)cn3C2=O)c1 [Example 1, (S)-2-(1-(3-Fluoro-5-methoxyphenyl)-2-hydroxyethyl)-6-(5-methyl-2-((1-methyl-1H-pyrazol-5-yl)amino)pyrimidin-4-yl)-1H-pyrrolo[1,2-c]imidazol-3(2H)-one] | 2 nM | 90 nM | 9 nM |
| Cn1nccc1Nc1ncc(Cl)c(-c2cc3n(c2)C(=O)N([C@H](CO)c2cccc(Cl)c2)C3)n1 [Example 2, (S)-6-(5-Chloro-2-((1-methyl-1H-pyrazol-5-yl)amino)pyrimidin-4-yl)-2-(1-(3-chlorophenyl)-2-hydroxyethyl)-1H-pyrrolo[1,2-c]imidazol-3(2H)-one] | 3 nM | 32 nM |  |
| O=C1N([C@H](CO)c2cccc(Cl)c2)Cc2cc(-c3nc(NC4CCOCC4)ncc3Cl)cn21 [Example 4, (S)-6-(5-Chloro-2-((tetrahydro-2H-pyran-4-yl)amino)pyrimidin-4-yl)-2-(1-(3-chlorophenyl)-2-hydroxyethyl)-1H-pyrrolo[1,2-c]imidazol-3(2H)-one] | 6 nM | 82 nM |  |
| C[C@@H](CO)Nc1ncc(Cl)c(-c2cc3n(c2)C(=O)N([C@H](CO)c2cccc(Cl)c2)C3)n1 [Example 5, 6-(5-Chloro-2-(((S)-1-hydroxypropan-2-yl)amino)pyrimidin-4-yl)-2-((S)-1-(3-chlorophenyl)-2-hydroxyethyl)-1H-pyrrolo[1,2-c]imidazol-3(2H)-one] |  | 81 nM | 10 nM |
| Cc1cnc(Nc2ccnn2C)nc1-c1cc2n(c1)C(=O)N([C@H](CO)c1ccc(F)c(Cl)c1)C2 [Example 6, (S)-2-(1-(3-Chloro-4-fluorophenyl)-2-hydroxyethyl)-6-(5-methyl-2-((1-methyl-1H-pyrazol-5-yl)amino)pyrimidin-4-yl)-1H-pyrrolo[1,2-c]imidazol-3(2H)-one] | 10 nM | 74 nM | 14 nM |
| O=C1N([C@H](CO)c2cccc(Cl)c2)Cc2cc(-c3nc(NC4CC(O)C(F)C4)ncc3Cl)cn21 (stereo partly drawn) [Example 7, 6-(5-Chloro-2-((3-fluoro-4-hydroxycyclopentyl)amino)pyrimidin-4-yl)-2-((S)-1-(3-chlorophenyl)-2-hydroxyethyl)-1H-pyrrolo[1,2-c]imidazol-3(2H)-one] | 63 nM | 158 nM |  |
| Cc1cnc(Nc2ccnn2C)nc1-c1cc2n(c1)C(=O)N([C@H](CO)c1cccc(Cl)c1)CC2 [Example 9, (S)-2-(1-(3-Chlorophenyl)-2-hydroxyethyl)-6-(5-methyl-2-((1-methyl-1H-pyrazol-5-yl)amino)pyrimidin-4-yl)-3,4-dihydropyrrolo[1,2-c]pyrimidin-1(2H)-one] |  | 77 nM | 12 nM |
| Cc1cnc(Nc2ccnn2C)nc1-c1cc2n(c1)C(=O)N([C@H](CN)c1cccc(Cl)c1)C2 [Example 11, (S)-2-(2-Amino-1-(3-chlorophenyl)ethyl)-6-(5-methyl-2-((1-methyl-1H-pyrazol-5-yl)amino)pyrimidin-4-yl)-1H-pyrrolo[1,2-c]imidazol-3(2H)-one] | 18 nM |  |  |
| Cc1cnc(Nc2ccnn2C)nc1-c1cc2n(c1)C(=O)N([C@H](C)c1cccc(Cl)c1)C2 [Example 12, (R)-2-(1-(3-Chlorophenyl)ethyl)-6-(5-methyl-2-((1-methyl-1H-pyrazol-5-yl)amino)pyrimidin-4-yl)-1H-pyrrolo[1,2-c]imidazol-3(2H)-one] | 45 nM |  |  |

Now from value to compound:

| IC50 [1] | IC50 [2] | IC50 [3] | SMILES |
| --- | --- | --- | --- |
| 2 nM | 99 nM | 2 nM | CNC[C@H](c1cccc(Cl)c1)N1Cc2cc(-c3nc(Nc4ccnn4C)ncc3C)cn2C1=O [Example 13, (S)-2-(1-(3-Chlorophenyl)-2-(methylamino)ethyl)-6-(5-methyl-2-((1-methyl-1H-pyrazol-5-yl)amino)pyrimidin-4-yl)-1H-pyrrolo[1,2-c]imidazol-3(2H)-one] |
| 5 nM | 92 nM |  | Cc1cnc(Nc2ccnn2C)nc1-c1cc2n(c1)C(=O)N([C@H](CO)c1ccc(Cl)c(F)c1)C2 [Example 14, (S)-2-(1-(4-Chloro-3-fluorophenyl)-2-hydroxyethyl)-6-(5-methyl-2-((1-methyl-1H-pyrazol-5-yl)amino)pyrimidin-4-yl)-1H-pyrrolo[1,2-c]imidazol-3(2H)-one] |
| 44 nM | 180 nM | 70 nM | Cn1nccc1Nc1nccc(-c2cc3n(c2)C(=O)N([C@H](CO)c2ccc(F)c(Cl)c2)C3)n1 [Example 16, (S)-2-(1-(3-Chloro-4-fluorophenyl)-2-hydroxyethyl)-6-(2-((1-methyl-1H-pyrazol-5-yl)amino)pyrimidin-4-yl)-1H-pyrrolo[1,2-c]imidazol-3(2H)-one] |
| 16 nM |  |  | Cc1cnc(Nc2ccnn2C)nc1-c1cc2n(c1)C(=O)N(Cc1ccc(F)c(F)c1)C2 [Example 18, 2-(3,4-Difluorobenzyl)-6-(5-methyl-2-((1-methyl-1H-pyrazol-5-yl)amino)pyrimidin-4-yl)-1H-pyrrolo[1,2-c]imidazol-3(2H)-one] |
| 20 nM | 101 nM | 24 nM | Cn1nccc1Nc1nccc(-c2cc3n(c2)C(=O)N([C@H](CO)c2cccc(F)c2)C3)n1 [Example 19, (S)-2-(1-(3-Fluorophenyl)-2-hydroxyethyl)-6-(2-((1-methyl-1H-pyrazol-5-yl)amino)pyrimidin-4-yl)-1H-pyrrolo[1,2-c]imidazol-3(2H)-one] |
| 45 nM | 120 nM | 67 nM | Cn1nccc1Nc1nccc(-c2cc3n(c2)C(=O)N([C@H](CO)c2ccc(Cl)cc2)C3)n1 [Example 21, (S)-2-(1-(4-Chlorophenyl)-2-hydroxyethyl)-6-(2-((1-methyl-1H-pyrazol-5-yl)amino)pyrimidin-4-yl)-1H-pyrrolo[1,2-c]imidazol-3(2H)-one] |
